Among the test systems are HCC-2998 colon; SF-295 CNS; RPMI-8226 leukemia; UO-31 renal; OVCAR-5 ovarian; SNB-75 CNS; NCI-H460 lung; OVCAR-4 ovarian; ACHN renal; MALME-3M melanoma.
Common to all, as to experiment: NCI anticancer screen, dose series, 48 h

Several values for one entry are separate records, joined by “and”; a condition that tells them apart may be missing. Equal entries are not always repeated.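 Results reflect a 48-hour exposure of cells in 96-well plates to compound at five concentrations. Abbreviation: GI50, concentration required for 50% inhibition of growth. At the TGI there is no net growth.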

As to `COc1cc(-n2ccnc2-c2ccc3ccccc3c2)cc(OC)c1OC`, the GI50 in the assay on HCC-2998 colon was below 0.0318 µM; in the assay with SF-295 CNS, 0.0363 µM; in the assay with RPMI-8226 leukemia, 0.292 µM; in the assay on UO-31 renal, 0.28 µM; in the assay with OVCAR-5 ovarian it was 0.408 µM; in the assay with SNB-75 CNS, 0.123 µM. Also, the GI50 was 0.0373 µM with NCI-H460 lung, 6.32 µM in the assay with OVCAR-4 ovarian, 2.6 µM with ACHN renal and 3.66 µM in the assay with MALME-3M melanoma. In addition, the TGI is 0.199 µM in the assay on HCC-2998 colon; 42.5 µM with SF-295 CNS; 20.6 µM in the assay on RPMI-8226 leukemia; 35 µM in the assay with UO-31 renal; above 93.6 µM with OVCAR-5 ovarian; 36.8 µM in the assay on SNB-75 CNS. The TGI was 14.7 µM in the assay with NCI-H460 lung, above 86.2 µM in the assay on OVCAR-4 ovarian, 49 µM in the assay with ACHN renal and 31.9 µM in the assay with MALME-3M melanoma.
Turning to `Cc1cccc(-c2nnc3s/c(=C\c4ccc(N(C)C)cc4)c(=O)n23)c1`, the TGI in the assay on HCC-2998 colon, in the assay on SF-295 CNS, with RPMI-8226 leukemia, in the assay on UO-31 renal, in the assay with OVCAR-5 ovarian and in the assay on SNB-75 CNS was above 100 µM throughout. The TGI in the assay on NCI-H460 lung, in the assay with OVCAR-4 ovarian, with ACHN renal and with MALME-3M melanoma was above 100 µM in each case.
Regarding `Cc1c(CN2CCN(C(=O)[C@H](C)O)CC2)sc2c(N3CCOCC3)nc(-c3cnc(N)nc3)nc12`, the GI50 is 0.552 µM and 0.242 µM with HCC-2998 colon; 0.131 µM and 0.0822 µM in the assay with SF-295 CNS; 0.267 µM and 0.206 µM in the assay on RPMI-8226 leukemia; 0.0579 µM and 0.053 µM in the assay on UO-31 renal; 0.192 µM and 0.128 µM in the assay with OVCAR-5 ovarian; 0.0317 µM and 0.0235 µM in the assay with SNB-75 CNS. Further, the GI50 was 0.12 µM and 0.108 µM in the assay with NCI-H460 lung; 0.346 µM and 0.144 µM in the assay with OVCAR-4 ovarian; 0.203 µM and 0.145 µM in the assay on ACHN renal; 0.0506 µM in the assay with MALME-3M melanoma. Further, the TGI in the assay on HCC-2998 colon is 9.79 µM and 13.1 µM; in the assay on SF-295 CNS it was 1.72 µM and 0.529 µM; in the assay with RPMI-8226 leukemia, > 8.66 µM and 11.8 µM; in the assay on UO-31 renal, 1.35 µM and 0.658 µM; in the assay with OVCAR-5 ovarian, > 10 µM and 4.3 µM; in the assay on SNB-75 CNS, 0.67 µM and 0.255 µM. Further, the TGI in the assay on NCI-H460 lung was above 100 µM; in the assay on OVCAR-4 ovarian it was 3.86 µM and 1.09 µM; in the assay with MALME-3M melanoma it was 0.847 µM and 0.414 µM.
In the case of `CN1C(=O)CCC(N2C(=O)c3cccc(NCCOCCOCCNC(=O)c4cc5c(o4)C(=O)c4ccccc4C5=O)c3C2=O)C1=O` (centres undefined), the GI50 was 1.99 µM with HCC-2998 colon; 1.66 µM in the assay on SF-295 CNS; 2.32 µM in the assay on RPMI-8226 leukemia; 1.59 µM in the assay with UO-31 renal; 1.76 µM with OVCAR-5 ovarian; 2.74 µM with SNB-75 CNS. Further, the GI50 in the assay on NCI-H460 lung was 1.33 µM; in the assay on OVCAR-4 ovarian, 1.43 µM; in the assay with ACHN renal, 2.04 µM; with MALME-3M melanoma, 0.151 µM. Also, the TGI was determined as 3.96 µM in the assay on HCC-2998 colon; 3.08 µM with SF-295 CNS; 7.06 µM in the assay with RPMI-8226 leukemia; 3.31 µM in the assay with UO-31 renal; 3.17 µM in the assay with OVCAR-5 ovarian; 4.72 µM in the assay on SNB-75 CNS. Moreover, the TGI in the assay with NCI-H460 lung was determined as 2.97 µM; in the assay with OVCAR-4 ovarian it was 2.8 µM; in the assay on ACHN renal it was 5.17 µM; in the assay with MALME-3M melanoma, 0.316 µM.
As to `O=C(C[n+]1ccccc1)N/N=C(/CCC(=O)N(Cc1ccccc1)Cc1ccccc1)CC(=O)c1ccccc1`, the TGI in the assay on HCC-2998 colon, in the assay on SF-295 CNS, in the assay on RPMI-8226 leukemia, in the assay with UO-31 renal, in the assay with OVCAR-5 ovarian and with SNB-75 CNS was above 100 µM in each case. Moreover, the TGI in the assay with NCI-H460 lung, with OVCAR-4 ovarian, with ACHN renal and in the assay with MALME-3M melanoma was above 100 µM throughout.
For the compound `CC(=O)O.CN1[CH-]N(Cc2ccc(C#N)cc2)c2ccccc21.[Ag+]`, the GI50 in the assay with HCC-2998 colon was above 100 µM; in the assay on SF-295 CNS, 82.3 µM; with RPMI-8226 leukemia it was 31.3 µM; in the assay with UO-31 renal, 16.2 µM; in the assay on OVCAR-5 ovarian it was 58.4 µM; in the assay with SNB-75 CNS, 20.6 µM. In addition, the GI50 was above 100 µM in the assay with NCI-H460 lung, 15.8 µM with OVCAR-4 ovarian, 16.3 µM with ACHN renal and 19.8 µM in the assay on MALME-3M melanoma. The TGI with HCC-2998 colon is above 100 µM; in the assay on SF-295 CNS, above 100 µM; with RPMI-8226 leukemia it was above 100 µM; in the assay on UO-31 renal, 30.3 µM; in the assay with OVCAR-5 ovarian, above 100 µM; with SNB-75 CNS, 68.9 µM. The TGI in the assay on NCI-H460 lung is above 100 µM; with OVCAR-4 ovarian, 32.8 µM; in the assay with ACHN renal, 30.2 µM; in the assay on MALME-3M melanoma it was 41.5 µM.
Turning to `O=C1c2c(c(=O)[nH]c3ccccc23)[C@H](c2ccccc2)[C@@H]2CCCN12`, the GI50 in the assay with HCC-2998 colon was 10.9 µM; with SF-295 CNS, 8.72 µM; in the assay with RPMI-8226 leukemia, 4.83 µM; in the assay with UO-31 renal, 2.1 µM; in the assay on OVCAR-5 ovarian it was 2.7 µM; in the assay on SNB-75 CNS it was 2.64 µM. The GI50 with NCI-H460 lung was 2.83 µM; in the assay on OVCAR-4 ovarian it was 2.63 µM; with ACHN renal it was 2.64 µM; with MALME-3M melanoma it was 6.87 µM. The TGI was determined as 69.6 µM in the assay with HCC-2998 colon; 47.8 µM with SF-295 CNS; 48.4 µM in the assay on RPMI-8226 leukemia; 7.05 µM in the assay on UO-31 renal; 9.59 µM in the assay on OVCAR-5 ovarian; 16.9 µM with SNB-75 CNS. For the same compound, the TGI in the assay on NCI-H460 lung came to 16.5 µM; with OVCAR-4 ovarian, 11.6 µM; in the assay on ACHN renal it was 14.9 µM; with MALME-3M melanoma, 43.8 µM.
For `Cc1ccc(CNc2ccc3nc(CCC4CCCCC4)[nH]c3c2)cc1`, the GI50 was 2.19 µM in the assay with HCC-2998 colon; 1.88 µM with SF-295 CNS; 2.03 µM in the assay with RPMI-8226 leukemia; 1.35 µM in the assay on UO-31 renal; 2.52 µM in the assay with OVCAR-5 ovarian; 1.75 µM in the assay with SNB-75 CNS. The GI50 with NCI-H460 lung was 2.99 µM; with OVCAR-4 ovarian it was 3.23 µM; in the assay with ACHN renal it was 3.09 µM; in the assay on MALME-3M melanoma, 1.74 µM. For the same compound, the TGI with HCC-2998 colon came to 4.35 µM; in the assay on SF-295 CNS it was 3.92 µM; in the assay with RPMI-8226 leukemia, 4.64 µM; with UO-31 renal, 3.3 µM; in the assay on OVCAR-5 ovarian, 8.18 µM; in the assay with SNB-75 CNS, 5.25 µM. Also, the TGI was found to be 8.6 µM with NCI-H460 lung, 18.7 µM in the assay on OVCAR-4 ovarian, 9.65 µM with ACHN renal and 4.07 µM in the assay with MALME-3M melanoma.

Values taken from PubChem BioAssay (NCI).
